Consider 73 molecules from PubChem BioAssay AID179 (DTP/NCI, 2004).

The term EC50 denotes the concentration needed to bring the measured effect to its halfway point. For orientation: IC50 means the concentration at which inhibition is half-maximal. Lower therefore signals higher potency.

This assay concerns CEM cells HIV-1 protection, formazan growth assay. Description: NCI AIDS Antiviral Assay. To be noted: for IC50: measured here: growth of uninfected CEM cells. A digest of the protocol: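 Five concentrations of each compound were applied to infected and uninfected human CEM cells. Protection from HIV-1 was judged from growth measured with a soluble formazan assay.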

The source made the active and inactive calls.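 How the source made its calls: active means compounds giving half or more protection of infected cells from virus-caused growth loss, again on retest; inactive means the rest.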

As for `CCOC(=O)/C=C/C1(CCOC(C)=O)CCCCC1`, the EC50 was more than 200 µM and the IC50 was 174 µM. `COc1cc2c(c(OC)c1OC)C(=O)[C@@H](O)[C@H]2N`: the EC50 was more than 200 µM and the IC50 was more than 100 µM. For `CN(C)c1nc2nonc2nc1Nc1ccccc1`, the EC50 was more than 200 µM and the half-maximal inhibitory concentration (IC50) was more than 200 µM. In the case of `OC1C2CCCCN2C[C@@H](O)[C@H]1O` (some centres undefined), the EC50 was more than 200 µM and the IC50 was more than 200 µM. Regarding `Cc1ccc2[c](c1)[Sn]([c]1ccccc1)([c]1ccccc1)[c]1cc(C)ccc1N2C`, the EC50 is more than 26.3 µM and the concentration for half-maximal inhibition (IC50) was found to be 10.2 µM. Taken in the same sequence, the figures for `CCOC(=O)/C(=C\c1cccc(Cl)c1)C(C)=O` were more than 141 µM and 57.5 µM. Taken in the same sequence, the figures for `O=C1c2ccccc2C2CC1c1ccccc12` (centres undefined) were more than 214 µM and more than 200 µM. Taken in the same sequence, the figures for `O=P1(Oc2ccccc2)C(c2ccccc2)C(c2ccccc2)=NN1c1ccccc1` (centres undefined) were more than 12.3 µM and more than 12.3 µM. On to `c1ccc2c(c1)C(=NCCCN1CCCCCCC1)c1cccn1-2`, for which the EC50 is more than 200 µM and the 50% inhibitory concentration (IC50) was determined as 47.9 µM. As for `O=c1c2cc(Br)ccc2oc2ccc(Br)cc12`, the result was inactive. Consider `COc1cc2c(cc1OC)C(C(CO)CO)N(CC(O)CCl)CC2` (centres undefined), for which the EC50 is more than 692 µM and the IC50 is more than 692 µM. For `O=C(Nc1ccc(Cl)cc1)Sc1nnc2c(n1)[nH]c1ccccc12`, the EC50 was 30.2 µM and the IC50 is more than 200 µM. As for `COc1ccc(C(=O)/C=C/c2ccc(OCC(=O)N3CCN(c4ccccc4)CC3)cc2)cc1`, the EC50 is more than 29.5 µM and the concentration for half-maximal inhibition (IC50) was more than 29.5 µM. Turning to `O=[N+]([O-])c1cc(Cc2cc(Cl)c(O)c([N+](=O)[O-])c2)cc(Cl)c1O`, the EC50 was more than 200 µM and the IC50 worked out at 35.5 µM.

As for `Cc1c(-c2ccccc2)cc(O)c2nc3ccccc3n12`, the EC50 is more than 200 µM and the 50% inhibitory concentration (IC50) worked out at 19.5 µM. In the case of `CC1NC(=O)c2cc(=O)[nH]c(O)c21` (centres undefined), the EC50 is more than 513 µM and the IC50 came to 398 µM. In the same order, the values of `CSC1(CC(=O)N2CCCCC2)C(=O)Nc2ccccc21` (centres undefined) are more than 200 µM and more than 200 µM. Taken in the same sequence, the figures for `Cc1c(C(=O)CSc2nc3ccccc3[nH]2)c(=O)n(-c2ccccc2)n1C` were more than 95.5 µM and more than 95.5 µM.

On to `CCOC(=O)c1ccc(CSc2ccccc2C(=O)OCC)cc1`, for which the EC50 was more than 3.02 µM and the IC50 was more than 3.02 µM. On to `CC(O)CN(CC(C)O)N(CC(C)O)CC(C)O` (centres undefined), for which the EC50 is more than 955 µM and the IC50 came to 219 µM. Turning to `O=C1CC(c2ccccc2)NN1c1ccccc1` (centres undefined), the outcome was inactive. `O=C1CSc2ccncc2N1`: the EC50 was more than 1510 µM and the IC50 is more than 1510 µM. Take `COC(=O)NC(Nc1ccccn1)(C(F)(F)F)C(F)(F)F`: the EC50 was more than 200 µM and the IC50 was more than 200 µM.

Take `O=C/C(=C(/Cl)c1ccc(O)cc1)c1ccccc1`: the EC50 is more than 115 µM and the IC50 stood at 49 µM.

`CCCCOC(=O)CC(C(=O)OCCCC)C(C(=O)OCCCC)P(=O)(OCCCC)OCCCC` (centres undefined): the EC50 is more than 26.3 µM and the half-inhibitory concentration (IC50) is 17.4 µM.

Take `O=c1cc(N=P(c2ccccc2)(c2ccccc2)c2ccccc2)n(-c2ccccc2)c(=O)n1-c1ccccc1`: the result was inactive.

As for `C=CN(C=C)C(=O)Cn1cc(-c2ccccc2)nn1`, the EC50 is more than 200 µM and the 50% inhibitory concentration (IC50) is more than 200 µM. Regarding `COc1ccc(N=Nc2cc(OC)c(N=Nc3c(O)c4ccccc4[nH]c3=O)cc2OC)cc1`, the EC50 is more than 100 µM and the IC50 was found to be 15.5 µM.

Regarding `COC(Cc1ccccc1)NC(C)=O` (centres undefined), the EC50 is more than 200 µM and the 50% inhibitory concentration (IC50) was determined as 186 µM. In the same order, the values of `Nc1nc(N)nc(-c2cnccn2)n1` are more than 200 µM and more than 200 µM.

Regarding `Cc1ccc(S(=O)(=O)/C(C#N)=C\N2CCNC2=S)cc1`, the EC50 was more than 200 µM and the IC50 is more than 200 µM. Turning to `CNC(=O)NCCCC(NC(C)=O)C(=O)NCc1ccccc1` (centres undefined), the EC50 is more than 112 µM and the IC50 is more than 112 µM. As for `CCOC(=O)NC(C(=O)OCC)(N1CCN(c2cc3c(cc2F)c(=O)c(C(=O)O)cn3CC)CC1)C(F)(F)F` (centres undefined), the EC50 is more than 200 µM and the IC50 is 145 µM. Regarding `S=C1NC2=S(N=C(Nc3ccccc3)N2c2ccccc2)S1` (centres undefined), the result was inactive. Regarding `COc1cc(Nc2nc3ccc(C(F)(F)F)cc3nc2C(=O)O)cc(OC)c1OC`, the EC50 is more than 200 µM and the 50% inhibitory concentration (IC50) amounted to 27.5 µM. For the molecule `NC(=O)NN=C1CSSC1`, the EC50 was 18.6 µM and the half-inhibitory concentration (IC50) amounted to 70.8 µM. On to `CCN(CC)C(=O)N[C@@H](CC(C)C)C(=O)NC`, for which the EC50 is more than 200 µM and the IC50 was more than 200 µM. On to `Cc1cn(CC2=NCC(C)N2)c(=O)[nH]c1=O` (centres undefined), for which the EC50 was more than 200 µM and the IC50 was more than 200 µM. `CC(=O)C(N=Nc1ccc(S(=O)(=O)Nc2onc(C)c2C)cc1)C(=O)Nc1cc(C)cc(C)c1` (centres undefined): the EC50 is more than 200 µM and the 50% inhibitory concentration (IC50) was 30.2 µM. For the molecule `COc1ccccc1Cn1nc(OC)c2cc([N+](=O)[O-])ccc21`, the EC50 was more than 151 µM and the IC50 is more than 151 µM. Regarding `CC(=O)O[C@H]1CCc2c(cc(N)c3c2C(=O)C[C@]2(C)C([C@H](C)CCCC(C)C)CCC32C)C1(C)C` (some centres undefined), the EC50 is more than 200 µM and the half-maximal inhibitory concentration (IC50) is more than 200 µM. `CCN=C1C=C/C(=C(/c2ccc(NCC)c(C)c2)c2cc(O)c(S(=O)(=O)O)cc2S(=O)(=O)O)C=C1C`: the outcome was inactive. For the molecule `O=[N+]([O-])c1cc(Cl)ccc1S(=O)(=O)c1ccc(Cl)cc1[N+](=O)[O-]`, the outcome was inactive. For `COc1cc(NCc2ccc3nc(-c4ccccc4)c(N)nc3c2)cc(OC)c1OC`, the EC50 is more than 200 µM and the concentration for half-maximal inhibition (IC50) worked out at 49 µM. Take `CN1C(=O)C2(C#N)C3(CCCC3)C2(C#N)C1=O` (centres undefined): the EC50 is more than 43.7 µM and the concentration for half-maximal inhibition (IC50) is more than 43.7 µM. Take `Cc1cc(=O)[nH]c2c1C(=O)c1c(C)cc(=O)n(C)c1C2=O`: the EC50 is more than 2 µM and the IC50 turned out to be 0.257 µM.

Turning to `CC(=O)NC1=NC(=O)/C(=C/c2ccccc2Cl)N1C`, the EC50 is more than 200 µM and the IC50 was more than 200 µM. As for `C/C(=C\c1ccc(F)cc1)C(=O)O`, the EC50 was more than 275 µM and the IC50 was more than 275 µM. Turning to `COc1cc(OC)cc(-c2cc(=O)c3c(OC)c(OC)c(OC)c(OC)c3o2)c1`, the EC50 is more than 200 µM and the half-maximal inhibitory concentration (IC50) was 26.9 µM. As for `O=C1NC2(CCNCC2)Oc2ccccc21`, the EC50 is more than 200 µM and the IC50 was more than 200 µM. Consider `CC(=O)SCCC(NC(=S)Nc1ccccc1)P(=O)(Oc1ccccc1)Oc1ccccc1` (centres undefined), for which the EC50 was more than 200 µM and the half-inhibitory concentration (IC50) was determined as 49 µM.

For `Cc1nnc2c3nccnc3c(Cl)nn12`, the EC50 was more than 200 µM and the half-inhibitory concentration (IC50) was found to be 2.34 µM.

Take `Cc1ccc(/C=C2/N=C(N/N=C\C(O)C(O)C(O)CO)NC2=O)cc1` (centres undefined): the EC50 was more than 200 µM, the result was inactive and the half-inhibitory concentration (IC50) stood at 110 µM. For the molecule `Cc1nc2ccccc2nc1CC(=N)c1ccccc1`, the EC50 was more than 200 µM and the IC50 turned out to be 61.7 µM. Taken in the same sequence, the figures for `Cc1c(O)cc2c(c1O)C(=O)CC(c1ccc(O)cc1)O2` (centres undefined) were more than 200 µM and 93.3 µM. In the case of `O=C1C(=O)N(c2ccc(Cl)c(Cl)c2)C(=O)C(=O)C1c1nc2ccccc2o1`, the outcome was inactive. Take `N#CC(C(=O)C(=O)Nc1ccc(Cl)cc1)c1ccccc1` (centres undefined): the outcome was inactive. For the molecule `COc1nc(OC)nc(Sc2ccc(Sc3ccc(Sc4nc(OC)nc(OC)n4)cc3)cc2)n1`, the EC50 was more than 13.5 µM and the IC50 was more than 13.5 µM. Turning to `COc1c(C)c(C/C=C(\C)CC/C=C(\C)CC/C=C(\C)CCC=C(C)C)c(OC)c2ccccc12`, the EC50 is more than 200 µM and the 50% inhibitory concentration (IC50) was found to be 107 µM.

With `CC/C(CC(=O)CCC(=O)Nc1c(C)cccc1C)=N\NC(=O)NN`, the EC50 is more than 145 µM and the IC50 is more than 145 µM. Take `COc1ccc(N2C(=O)/C(=C\c3ccc(N(CCC#N)CCC#N)cc3)N=C2COc2ccccc2)cc1`: the EC50 is more than 26.9 µM and the IC50 was more than 26.9 µM.

`CC1C2(C)OC(=N)C(C#N)(C(c3cccc([N+](=O)[O-])c3)O2)C1(C#N)C#N` (centres undefined): the EC50 is more than 200 µM and the IC50 is 11.7 µM. In the same order, the values of `CN(C)c1ccc(/C=C(\NC(=O)c2ccccc2)C2NC(Cc3c[nH]c4ccccc34)C(=O)O2)cc1` (centres undefined) are more than 100 µM and 8.71 µM.

On to `CCCOC(C)OCCC#CCC(C)OC(=O)CC(Cl)(Cl)Cl` (centres undefined), for which the EC50 is more than 200 µM and the half-inhibitory concentration (IC50) was more than 200 µM.

Regarding `O=S(Cc1cnc2ccccc2c1)c1nc2ccccc2nc1-c1cccs1` (centres undefined), the EC50 is more than 6.76 µM and the IC50 was more than 6.76 µM. Take `O=[N+]([O-])c1cccnc1NCC1(CO)CC(Cc2ccccc2)C1` (centres undefined): the EC50 was more than 200 µM and the half-inhibitory concentration (IC50) was determined as 110 µM. In the case of `CCOC(=O)CCC(NC(=O)c1ccc(Nc2nc3ccccc3nc2C(=O)OCC)cc1)C(=O)OCC` (centres undefined), the EC50 is more than 138 µM and the IC50 is 85.1 µM. As for `C1CSC[C@H]2COC[C@@H](CSCCS1)S2`, the EC50 is more than 631 µM and the half-inhibitory concentration (IC50) is more than 631 µM. In the case of `CN(C)CCCNC(=O)c1nc(NC(=O)c2nc(NC(=O)c3nc(NC(=O)/C=C/C(=O)Nc4cn(C)c(C(=O)Nc5cn(C)c(C(=O)Nc6cn(C)c(C(=O)NCCCN(C)C)n6)n5)n4)cn3C)cn2C)cn1C`, the EC50 is more than 50.1 µM and the IC50 was more than 50.1 µM.

With `COC(=O)N[C@H](C(=O)O)C(C)O[Si](C)(C)C(C)(C)C` (some centres undefined), the EC50 is more than 851 µM and the IC50 was more than 851 µM.

Regarding `CC(=O)Nc1ccc([As](=O)(O)O)cc1NC(C)=O`, the EC50 is more than 200 µM and the concentration for half-maximal inhibition (IC50) is 28.2 µM. For the molecule `COc1cc2oc(-c3ccc(O)cc3)cc(=O)c2c(OC)c1O`, the EC50 was more than 200 µM and the concentration for half-maximal inhibition (IC50) was more than 200 µM. With `CCCC(O)(CCC)C1=NCCN1`, the EC50 was more than 200 µM and the IC50 is more than 200 µM.
